Assay results as given in US8691804B2 (Evotec AG, priority 2008, dated 2014).

Biological target: T1, human H3 receptors (Homo sapiens, UniProt Q9Y5N1)
T1 construct: host or cells: CHO-K1
Assay: cAMP quantification assay for human H3 receptor testing
Assay type: cell-based
Details: CHO-K1 cells expressing human H3 receptors; inhibition of agonist-induced decrease of cAMP; 100 nM histamine, 10 μM forskolin; read-out: Potency range (IC50 values)
In short: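 CHO-K1 cells expressing human H3 (10,000/well) were preincubated 30 min at 37 °C with compound in PBS containing 1 mM IBMX and 0.03% BSA. They were then challenged 30 min with agonist solution (100 nM histamine plus 10 μM forskolin). cAMP was quantified by enzyme-complementation luminescence, with 8 concentrations in triplicate at 1% DMSO.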

T1 sequence (Q9Y5N1 whole entry): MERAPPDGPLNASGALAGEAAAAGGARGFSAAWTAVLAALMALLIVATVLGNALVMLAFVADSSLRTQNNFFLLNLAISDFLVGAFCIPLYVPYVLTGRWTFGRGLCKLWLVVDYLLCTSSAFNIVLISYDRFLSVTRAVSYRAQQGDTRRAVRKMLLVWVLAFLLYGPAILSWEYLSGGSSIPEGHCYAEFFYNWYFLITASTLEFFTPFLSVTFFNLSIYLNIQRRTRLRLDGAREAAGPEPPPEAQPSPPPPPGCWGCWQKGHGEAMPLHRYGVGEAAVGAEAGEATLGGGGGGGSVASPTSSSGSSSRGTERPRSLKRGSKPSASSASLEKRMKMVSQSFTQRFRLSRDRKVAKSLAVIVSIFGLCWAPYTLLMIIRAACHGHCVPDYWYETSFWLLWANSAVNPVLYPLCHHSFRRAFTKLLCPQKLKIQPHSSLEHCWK

IC50 | SMILES
< 0.1 µM | O=C(Nc1ccc(Cl)cc1)C1CN(C(=O)N2CCCN(C3CCC3)CC2)C1 [Example 123, N-(4-chlorophenyl)-1-[(4-cyclobutyl-1,4-diazepan-1-yl)carbonyl]azetidine-3-carboxamide]
< 0.1 µM | O=C([C@H]1C[C@H](Oc2ccc(C(F)(F)F)cn2)C1)N1CCCN(C2CCC2)CC1 [Example 107, 1-cyclobutyl-4-[(trans-3-{[5-(trifluoromethyl)pyridin-2-yl]oxy}cyclobutyl)carbonyl]-1,4-diazepane]
< 0.1 µM | O=C(NC1CN(C(=O)N2CCCN(C3CCC3)CC2)C1)c1ccc(Cl)cc1 [Example 140, 4-chloro-N-{1-[(4-cyclobutyl-1,4-diazepan-1-yl)carbonyl]azetidin-3-yl}benzamide]
< 0.1 µM | CC(C)(O)c1ccc(OC2CN(C(=O)N3CCCN(C4CCC4)CC3)C2)cn1 [Example 118, 2-[5-({1-[(4-cyclobutyl-1,4-diazepan-1-yl)carbonyl]azetidin-3-yl}oxy)pyridin-2-yl]propan-2-ol]
< 0.1 µM | O=C(N1CCCN(C2CCC2)CC1)N1CC(COc2ccc(Cl)cc2)C1 [Example 135, 1-({3-[(4-chlorophenoxy)methyl]azetidin-1-yl}carbonyl)-4-cyclobutyl-1,4-diazepane]
< 0.1 µM | O=C(N1CCCN(C2CCC2)CC1)N1CC(Oc2ccc(C(F)(F)F)cc2)C1 [Example 10, 1-cyclobutyl-4-({3-[4-(trifluoromethyl)phenoxy]azetidin-1-yl}carbonyl)-1,4-diazepane]
0.5 to 5 µM | CC(C)(O)c1ccc(OC2CN(C(=O)N3CCCN(C4CCCC4)CC3)C2)cn1 [Example 159, 2-[5-({1-[(4-cyclopentyl-1,4-diazepan-1-yl)carbonyl]azetidin-3-yl}oxy)pyridin-2-yl]propan-2-ol]
< 0.1 µM | CC(C)(O)c1cc(OC2CN(C(=O)N3CCCN(C4CCC4)CC3)C2)ccn1 [Example 53, 2-[4-({1-[(4-cyclobutyl-1,4-diazepan-1-yl)carbonyl]azetidin-3-yl}oxy)pyridin-2-yl]propan-2-ol]
< 0.1 µM | Cc1nn(C)c(C)c1-c1ccc(OC2CN(C(=O)N3CCCN(C4CCC4)CC3)C2)cc1 [Example 150, 1-cyclobutyl-4-({3-[4-(1,3,5-trimethyl-1H-pyrazol-4-yl)phenoxy]azetidin-1-yl}carbonyl)-1,4-diazepane]
< 0.1 µM | O=C(N1CCCN(C2CCC2)CC1)N1CC(Oc2ccc(-n3ccnc3)cc2)C1 [Example 26, 1-cyclobutyl-4-({3-[4-(1H-imidazol-1-yl)phenoxy]azetidin-1-yl}carbonyl)-1,4-diazepane]
< 0.1 µM | Cn1ccc2cc(OC3CN(C(=O)N4CCCN(C5CCC5)CC4)C3)ccc21 [Example 155, 5-({1-[(4-cyclobutyl-1,4-diazepan-1-yl)carbonyl]azetidin-3-yl}oxy)-1-methyl-1H-indole]
< 0.1 µM | O=C(N1CCN(C2CCC2)CC1)N1CC(Oc2ccc(C(F)(F)F)cc2)C1 [Example 39, 1-cyclobutyl-4-({3-[4-(trifluoromethyl)phenoxy]azetidin-1-yl}carbonyl)piperazine]
< 0.1 µM | O=C(N1CCCN(C2CCC2)CC1)N1CC(Oc2ccc(CN3CCCCC3)cc2)C1 [Example 19, 1-cyclobutyl-4-({3-[4-(piperidin-1-ylmethyl)phenoxy]azetidin-1-yl}carbonyl)-1,4-diazepane]
< 0.1 µM | CN(C)C(=O)c1ccc(OC2CN(C(=O)N3CCCN(C4CCC4)CC3)C2)cc1 [Example 9, 4-({1-[(4-cyclobutyl-1,4-diazepan-1-yl)carbonyl]azetidin-3-yl}oxy)-N,N-dimethylbenzamide]
< 0.1 µM | Cc1ccc(OC2CN(C(=O)N3CCCN(C4CCC4)CC3)C2)nn1 [Example 59, 1-cyclobutyl-4-({3-[(6-methylpyridazin-3-yl)oxy]azetidin-1-yl}carbonyl)-1,4-diazepane]
< 0.1 µM | COc1cc(OC2CN(C(=O)N3CCCN(C4CCC4)CC3)C2)ccn1 [Example 56, 1-cyclobutyl-4-({3-[(2-methoxypyridin-4-yl)oxy]azetidin-1-yl}carbonyl)-1,4-diazepane]
< 0.1 µM | COc1cncc(OC2CN(C(=O)N3CCCN(C4CCC4)CC3)C2)n1 [Example 66, 1-cyclobutyl-4-({3-[(6-methoxypyrazin-2-yl)oxy]azetidin-1-yl}carbonyl)-1,4-diazepane]
